ChEMBL document CHEMBL1201862, “PubChem BioAssay data set” (2004)
pIC50: −log10 of the molar value. Active and inactive are the calls of the source.

Tests used:
[1] = inhibitors of firefly luciferase expression or activity, dose response, H4 neuroglioma cells, luminescence (AID 1990); type: functional, cell-based
cells [2] = type: functional, cell-based
[3] = Luminescence Cell-Based Dose Response HTS to Identify Inhibitors of 5'UTR Stem-Loop Driven Prion Protein mRNA Translation in H4 Neuroglioblastoma Cells. [Related pubchem assays: 1827 (Project Summary), 1813 (Primary HTS)]; type: functional
[4] = target: T1, Heat shock factor protein 1 (Mus musculus, UniProt P38532); test: inhibition of MG132-induced HSE-luciferase signal, confirmation, cell-based, NIH3T3, luminescence, dose retest (AID 2382); type: functional;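 further: NIH3T3 fibroblasts with HSF1-driven luciferase reporter stressed by proteasome inhibitor MG132; luminescence from HSF1-driven luciferase expression after 8 hours of MG132 stress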
T1 sequence (P38532 whole entry): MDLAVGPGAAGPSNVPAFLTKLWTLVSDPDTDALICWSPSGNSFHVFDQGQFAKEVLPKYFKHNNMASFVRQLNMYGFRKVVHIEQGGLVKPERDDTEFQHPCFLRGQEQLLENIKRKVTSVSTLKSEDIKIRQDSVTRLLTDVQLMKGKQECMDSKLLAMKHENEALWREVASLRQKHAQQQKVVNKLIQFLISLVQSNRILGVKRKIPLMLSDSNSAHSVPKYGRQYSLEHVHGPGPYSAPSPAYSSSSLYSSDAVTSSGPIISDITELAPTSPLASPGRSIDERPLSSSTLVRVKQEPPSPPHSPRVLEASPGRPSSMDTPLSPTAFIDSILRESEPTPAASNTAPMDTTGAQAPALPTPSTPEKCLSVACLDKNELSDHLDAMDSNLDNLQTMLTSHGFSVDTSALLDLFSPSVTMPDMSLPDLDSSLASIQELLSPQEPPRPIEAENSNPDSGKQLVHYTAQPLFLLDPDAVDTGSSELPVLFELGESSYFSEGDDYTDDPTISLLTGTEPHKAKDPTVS

[5] = inhibitors of SNCA 5'UTR-driven reporter translation, confirmation, H4 neuroglioma cells, luminescence (AID 1988); type: functional, cell-based
[6] = inhibitors of intracellular T. cruzi replication, confirmation, NIH3T3 host cells, beta-gal luminescence (AID 2044); type: functional, cell-based;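 further: intracellular parasites grown in NIH/3T3 mouse fibroblasts as host cells; luminescent beta-galactosidase reporter signal from transgenic T. cruzi replicating inside host cells; inhibitors lower the luminescence signal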
cells [7] = type: functional, cell-based; remark: listed apart in the source
[8] = target: T2, Kappa-type opioid receptor (Homo sapiens, UniProt P41145); type: functional
[9] = cytotoxicity toward NIH3T3 fibroblasts, dose response, counter-screen, cell-based, ATP luminescence, mouse fibroblasts (AID 2010); type: functional;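 further: cells exposed to compound for about 90 hours before reading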
Beta-galactosidase = Beta-galactosidase (Escherichia coli, UniProt Q8VNN2); type: functional
[10] = target: T2, Kappa-type opioid receptor; type: functional; remark: listed apart in the source
Exodeoxyribonuclease V = Exodeoxyribonuclease V (Escherichia coli (strain K12), UniProt P04993+P07648+P08394); test: E. coli RecBCD inhibitors, dose response, counter-screen for AddAB inhibitor project, absorbance, V66 E. coli, mutant T4 phage (AID 492957); type: functional, cell-based, Escherichia coli str. K-12 substr. MG1655
[11] = cytotoxicity in HEK-293T cells, dose response, cytotoxicity control for TCR NF-kB inhibitor project, luminescence, T-cell screen hits (AID 489026); type: functional, cell-based;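 further: cells exposed to compound about 14 hours before the viability readout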
Nonstructural protein 1 = Nonstructural protein 1 (Influenza A virus, UniProt Q194T2); type: functional, Influenza A virus (A/California/07/2009(H1N1))
[12] = Counterscreen for AddAB inhibitors: absorbance-based bacterial cell-based high throughput dose response assay for inhibitors of bacterial viability. [Related pubchem assays (depositor defined):AID435030, AID449728, AID449731, AID488942, AID488955, AID488956]; type: functional
HEK293 = test: inhibitors of LMP1-driven NF-kB reporter, dose response, cell-based, HEK293, luciferase, cherry-pick (AID 588343); type: functional; conditions: Homo sapiens
[13] = target: Heat shock protein HSP 90-alpha (Homo sapiens, UniProt P07900); type: functional, organism-based
INS1 = test: beta cell apoptosis inhibitors, cytokine rescue, dose response, luminescence, retest (AID 449756); type: functional, cell-based; conditions: Rattus norvegicus;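 further: cell death triggered by IL-1 beta plus TNF-alpha plus IFN-gamma mixture; protective hits raise ATP signal compared with cytokine alone wells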
[14] = target: T3, Alkaline phosphatase, tissue-nonspecific isozyme (Homo sapiens, UniProt P05186)
T3 sequence (P05186 whole entry): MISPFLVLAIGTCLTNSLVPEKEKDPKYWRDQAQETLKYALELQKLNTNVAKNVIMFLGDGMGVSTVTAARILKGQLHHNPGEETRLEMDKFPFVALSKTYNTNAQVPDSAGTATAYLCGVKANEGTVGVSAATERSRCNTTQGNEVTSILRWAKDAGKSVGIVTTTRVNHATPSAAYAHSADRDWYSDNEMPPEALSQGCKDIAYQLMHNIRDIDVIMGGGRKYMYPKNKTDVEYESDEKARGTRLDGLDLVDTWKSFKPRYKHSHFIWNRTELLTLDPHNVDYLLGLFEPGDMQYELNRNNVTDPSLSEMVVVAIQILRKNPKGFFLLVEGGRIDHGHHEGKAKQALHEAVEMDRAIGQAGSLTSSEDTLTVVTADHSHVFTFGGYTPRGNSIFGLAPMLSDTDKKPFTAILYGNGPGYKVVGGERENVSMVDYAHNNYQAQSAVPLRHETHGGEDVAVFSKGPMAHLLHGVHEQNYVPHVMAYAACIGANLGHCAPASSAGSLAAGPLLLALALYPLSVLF

[15] = target: Intestinal-type alkaline phosphatase (Mus musculus, UniProt P24822); test: PubChem AID 488874; type: functional
[16] = target: T4, Intestinal-type alkaline phosphatase (Homo sapiens, UniProt P09923); test: human intestinal alkaline phosphatase activators, dose response, biochemical, luminescence, uHTS hits (AID 463120); type: functional
[17] = target: T4, Intestinal-type alkaline phosphatase; test: human IAP activators, dose response, biochemical, luminescent, uHTS hits, set 2 (AID 488817); type: functional;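 further: potency of activators that raise enzyme activity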
[18] = target: T3, Alkaline phosphatase, tissue-nonspecific isozyme; test: TNAP enzyme activators, dose response, selectivity assay for human IAP activator project, biochemical, TNAP isozyme, human IAP uHTS hits (AID 488886); type: functional;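 further: potency of compounds raising TNAP activity as a selectivity check on IAP activators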
cells [19] = type: functional

T4 sequence (P09923 whole entry): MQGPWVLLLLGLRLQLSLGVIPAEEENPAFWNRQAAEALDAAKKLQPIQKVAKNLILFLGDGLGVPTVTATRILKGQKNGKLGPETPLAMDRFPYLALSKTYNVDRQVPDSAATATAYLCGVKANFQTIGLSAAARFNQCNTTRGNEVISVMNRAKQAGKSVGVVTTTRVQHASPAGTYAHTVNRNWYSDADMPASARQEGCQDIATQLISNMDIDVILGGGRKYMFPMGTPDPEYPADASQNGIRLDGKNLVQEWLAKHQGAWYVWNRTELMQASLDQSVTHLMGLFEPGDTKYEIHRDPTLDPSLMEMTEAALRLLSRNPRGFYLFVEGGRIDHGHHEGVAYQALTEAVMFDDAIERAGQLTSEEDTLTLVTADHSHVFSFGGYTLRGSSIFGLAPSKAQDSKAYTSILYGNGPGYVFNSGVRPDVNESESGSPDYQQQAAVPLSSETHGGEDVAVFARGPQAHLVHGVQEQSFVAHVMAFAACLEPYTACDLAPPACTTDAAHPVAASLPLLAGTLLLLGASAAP
T2 sequence (P41145 whole entry): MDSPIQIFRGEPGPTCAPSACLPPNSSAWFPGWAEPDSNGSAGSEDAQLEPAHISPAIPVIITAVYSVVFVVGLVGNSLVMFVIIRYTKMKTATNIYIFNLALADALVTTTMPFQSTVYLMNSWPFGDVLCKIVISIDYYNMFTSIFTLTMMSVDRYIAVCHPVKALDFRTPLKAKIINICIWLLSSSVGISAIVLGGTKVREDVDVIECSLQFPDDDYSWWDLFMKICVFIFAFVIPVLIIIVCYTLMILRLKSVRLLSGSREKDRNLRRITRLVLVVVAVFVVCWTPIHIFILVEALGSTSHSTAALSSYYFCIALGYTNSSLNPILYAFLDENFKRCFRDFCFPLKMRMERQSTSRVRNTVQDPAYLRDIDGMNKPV
Intestinal-type alkaline phosphatase (Mus musculus, UniProt P24822), sequence (P24822 whole entry): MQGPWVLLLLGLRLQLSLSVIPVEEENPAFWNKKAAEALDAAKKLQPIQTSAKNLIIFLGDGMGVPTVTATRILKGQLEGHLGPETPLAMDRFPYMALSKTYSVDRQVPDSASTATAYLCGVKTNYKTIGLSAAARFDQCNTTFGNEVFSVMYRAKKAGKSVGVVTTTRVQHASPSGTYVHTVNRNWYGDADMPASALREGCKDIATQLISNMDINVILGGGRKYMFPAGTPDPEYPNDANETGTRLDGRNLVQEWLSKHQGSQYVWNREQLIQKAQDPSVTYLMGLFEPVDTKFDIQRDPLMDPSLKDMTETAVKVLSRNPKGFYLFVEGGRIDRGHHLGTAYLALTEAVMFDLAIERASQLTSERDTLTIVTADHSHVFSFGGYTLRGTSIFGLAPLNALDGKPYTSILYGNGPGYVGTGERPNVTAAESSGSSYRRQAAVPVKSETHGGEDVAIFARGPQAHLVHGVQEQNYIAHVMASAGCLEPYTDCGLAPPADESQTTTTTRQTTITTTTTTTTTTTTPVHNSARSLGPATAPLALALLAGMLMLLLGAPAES
Beta-galactosidase, sequence (Q8VNN2 whole entry): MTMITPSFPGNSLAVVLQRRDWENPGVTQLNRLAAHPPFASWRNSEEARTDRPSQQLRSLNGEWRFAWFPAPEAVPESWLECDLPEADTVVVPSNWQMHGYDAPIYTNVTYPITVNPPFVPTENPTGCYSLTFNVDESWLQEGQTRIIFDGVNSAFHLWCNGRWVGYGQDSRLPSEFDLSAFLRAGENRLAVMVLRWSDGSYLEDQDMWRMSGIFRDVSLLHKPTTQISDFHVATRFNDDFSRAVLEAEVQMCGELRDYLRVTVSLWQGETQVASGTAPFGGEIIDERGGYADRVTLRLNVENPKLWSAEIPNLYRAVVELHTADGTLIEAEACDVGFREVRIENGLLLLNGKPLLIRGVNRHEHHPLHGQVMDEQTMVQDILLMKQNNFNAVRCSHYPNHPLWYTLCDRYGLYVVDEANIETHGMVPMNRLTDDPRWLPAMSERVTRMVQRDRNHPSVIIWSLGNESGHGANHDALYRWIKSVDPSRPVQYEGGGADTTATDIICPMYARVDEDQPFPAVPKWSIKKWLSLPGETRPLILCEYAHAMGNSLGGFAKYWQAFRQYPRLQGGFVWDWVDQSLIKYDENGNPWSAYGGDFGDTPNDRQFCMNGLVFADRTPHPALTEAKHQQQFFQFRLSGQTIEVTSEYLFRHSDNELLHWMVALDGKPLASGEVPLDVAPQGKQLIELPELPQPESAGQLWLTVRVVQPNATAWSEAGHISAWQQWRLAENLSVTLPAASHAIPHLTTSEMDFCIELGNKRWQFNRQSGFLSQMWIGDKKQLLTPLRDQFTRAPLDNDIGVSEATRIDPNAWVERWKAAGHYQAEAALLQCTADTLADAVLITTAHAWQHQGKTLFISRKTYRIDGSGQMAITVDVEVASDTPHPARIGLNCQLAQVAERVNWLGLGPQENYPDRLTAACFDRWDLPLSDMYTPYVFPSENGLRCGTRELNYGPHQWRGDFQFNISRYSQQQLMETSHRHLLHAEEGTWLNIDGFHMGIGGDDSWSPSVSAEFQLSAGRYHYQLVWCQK
Nonstructural protein 1, sequence (Q194T2 whole entry): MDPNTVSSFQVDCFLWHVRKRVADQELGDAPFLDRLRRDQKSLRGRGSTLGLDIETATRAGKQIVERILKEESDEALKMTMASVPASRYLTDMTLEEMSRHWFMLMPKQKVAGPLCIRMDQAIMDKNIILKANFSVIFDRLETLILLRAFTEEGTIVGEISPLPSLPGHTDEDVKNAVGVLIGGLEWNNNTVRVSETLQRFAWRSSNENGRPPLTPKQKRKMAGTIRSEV

Oc1ccc2ccccc2c1N=Nc1ccccn1
EC50 [1]: 10.8 µM (active) | EC50 (cells [2]): 24 µM (active) | EC50 [3]: 2.43 µM (active) | EC50 [4]: 11.4 µM (active) | EC50 [5]: 2.29 µM (active) | EC50 [6]: 0.471 µM (active) | EC50 (cells [7]): 41 µM (active) | IC50 [8]: 5.12 µM (active) | EC50 [9]: 3.4 µM (active) | EC50 (Beta-galactosidase): 25.7 µM (active) | pIC50 [10]: < 4.49 | IC50 (Exodeoxyribonuclease V): > 118 µM (inactive) | IC50 [11]: > 80 µM (inactive) | IC50 (Nonstructural protein 1): 13.9 µM (active) | IC50 [12]: > 118 µM (inactive) | AC50 (HEK293): 7.41 µM (active) | AC50 [13]: 2.7 µM (active) | AC50 (INS1): 0.746 µM (active)

C=CCN1C(=O)C2(NNc3ccccc3O2)c2ccccc21 (centres undefined)
EC50 [14]: < 0.195 µM (not active) | IC50 [15]: 14.2 µM (active) | EC50 [16]: 11.3 µM (active) | EC50 [17]: 0.514 µM (active) | EC50 [18]: 0.636 µM (active) | IC50 (cells [19]): 11.7 µM (active)
